Reference: ChEMBL document CHEMBL1145177, “Further naphthylcombretastatins. An investigation on the role of the naphthalene moiety” (J Med Chem, 2005)

What was measured:
Assay type in all cases: functional, cell-based
HT-29 = assay: Inhibitory concentration value against human colon adenocarcinoma HT-29 tumor cell line
SK-MEL-28 = assay: Inhibitory concentration value against human MEL-28 tumor cell line
HCT-116 = assay: Inhibitory concentration value against human colon carcinoma H-116 tumor cell line
P388 = assay: Inhibitory concentration value against murine P-388 tumor cell line; details: Mus musculus
A549 = assay: Inhibitory concentration value against human A-549 tumor cell line
[1] = Inhibitory concentration value against human MEL-28 or human cancer HeLa tumor cell line
HL-60 = assay: Inhibitory concentration value against human colon carcinoma H-116 or human cancer HL-60 tumor cell line

Row | SMILES | IC50 (HT-29) | IC50 (SK-MEL-28) | IC50 (HCT-116) | IC50 (P388) | IC50 (A549) | IC50 [1] | IC50 (HL-60)
1 | C(=C/c1ccco1)/c1ccc2ccccc2c1 | > 5 µM | > 5 µM | > 5 µM | > 5 µM | > 5 µM |  | 
2 | COc1cc(/C=C/c2ccc3c(ccn3S(=O)(=O)c3ccccc3)c2)cc(OC)c1OC | > 5 µM |  |  | > 5 µM | > 5 µM | > 5 µM | > 5 µM
3 | C(=C/c1ccc2ccccc2c1)/c1ccoc1 | > 5 µM | > 5 µM | > 5 µM | > 5 µM | > 5 µM |  | 
4 | Cn1c2ccccc2c2cc(/C=C\c3ccc4ccccc4c3)ccc21 | > 5 µM | > 5 µM | > 5 µM | > 5 µM | > 5 µM |  | 
5 | COc1ccc(/C=C/c2ccc3ccccc3c2)cc1N | > 5 µM | > 5 µM | 1.82 µM | > 5 µM | 1.82 µM |  | 
6 | COc1ccc(/C=C\c2ccc3ccccc3c2)cc1C(=O)CN | > 5 µM | > 5 µM | > 5 µM | > 5 µM | 1.58 µM |  | 
7 | COc1cc(/C=C/c2cn(C)c3ccccc23)cc(OC)c1OC | 3.09 µM |  |  | 3.09 µM | 3.09 µM | 3.09 µM | 3.09 µM
8 | COc1cc(/C=C\c2cn(C(C)=O)c3ccccc23)cc(OC)c1OC | 2.85 µM |  |  | 2.85 µM | 2.85 µM | 2.85 µM | 2.85 µM
9 | COc1ccc(/C=C\c2ccc3ccccc3c2)cc1N | 1.82 µM | > 20 µM | 0.36 µM | 1.82 µM | > 20 µM |  | 
10 | CN(C)c1ccc(/C=C\c2ccc3ccccc3c2)cc1 | 3.66 µM | 3.66 µM | 3.66 µM | 3.66 µM | 3.66 µM |  | 
11 | C(=C\c1ccc2ccccc2c1)/c1ccoc1 | > 5 µM | > 5 µM | > 5 µM | > 5 µM | > 5 µM |  | 
12 | CC(=O)Oc1ccc(/C=C/c2ccc3ccccc3c2)cc1 | > 5 µM | > 5 µM | > 5 µM | > 5 µM | > 5 µM |  | 
13 | FC(F)(F)Oc1cccc(/C=C\c2ccc3ccccc3c2)c1 | 3.5 µM | 3.5 µM | 3.5 µM | 3.5 µM | 3.5 µM |  | 
14 | C(=C/c1ccc2ccccc2c1)/c1ccc2c(c1)-c1ccccc1C2 | > 5 µM | > 5 µM | > 5 µM | > 5 µM | > 5 µM |  | 
15 | Cn1ccc2cc(/C=C\c3ccc4ccccc4c3)ccc21 | > 5 µM | > 5 µM | > 5 µM | > 5 µM | > 5 µM |  | 
16 | CCN(CC)c1cc(/C=C/c2ccc3ccccc3c2)ccc1OC | > 5 µM | > 5 µM | > 5 µM | > 5 µM | > 5 µM |  | 
17 | O=S(=O)(c1ccccc1)n1ccc2cc(/C=C/c3ccc4ccccc4c3)ccc21 | > 5 µM | > 5 µM | > 5 µM | > 5 µM | > 5 µM |  | 
18 | COc1cc(/C=C\c2ccc3c(ccn3S(=O)(=O)c3ccccc3)c2)cc(OC)c1OC | > 5 µM |  |  | > 5 µM | > 5 µM | > 5 µM | > 5 µM
19 | COc1c(N)cc(/C=C\c2ccc3ccccc3c2)cc1N | > 5 µM |  |  | 5 µM | > 5 µM | > 5 µM | 5 µM
20 | C(=C/c1cccc2ccccc12)/c1ccc2ccccc2c1 | 3.57 µM | 3.57 µM | 3.57 µM | 3.57 µM | 3.57 µM |  | 
21 | COCCOc1cc(/C=C/c2ccc3ccccc3c2)ccc1OC | > 5 µM | 2.99 µM | > 5 µM | 2.99 µM | 2.99 µM |  | 

Row | SMILES | IC50 (HT-29) | IC50 (SK-MEL-28) | IC50 (HCT-116) | IC50 (P388) | IC50 (A549) | IC50 [1] | IC50 (HL-60)
22 | Cc1ccc(/C=C\c2ccc3ccccc3c2)cc1 | > 5 µM | > 5 µM | > 5 µM | > 5 µM | > 5 µM |  | 
23 | C(=C\c1ccco1)/c1ccc2ccccc2c1 | > 5 µM | > 5 µM | > 5 µM | > 5 µM | > 5 µM |  | 
24 | CN(C)c1c([N+](=O)[O-])cc(/C=C\c2ccc3ccccc3c2)cc1[N+](=O)[O-] | 2.75 µM |  |  | > 5 µM | > 5 µM | > 5 µM | 2.75 µM
25 | Cn1ccc2cc(/C=C/c3ccc4ccccc4c3)ccc21 | > 5 µM | > 5 µM | > 5 µM | > 5 µM | 3.53 µM |  | 
26 | FC(F)(F)c1ccc(/C=C\c2ccc3ccccc3c2)cc1 | > 5 µM | > 5 µM | > 5 µM | > 5 µM | > 5 µM |  | 
27 | Cn1c2ccccc2c2cc(/C=C/c3ccc4ccccc4c3)ccc21 | > 5 µM | > 5 µM | > 5 µM | > 5 µM | > 5 µM |  | 
28 | FC(F)(F)c1ccc(/C=C/c2ccc3ccccc3c2)cc1 | > 5 µM | > 5 µM | > 5 µM | > 5 µM | > 5 µM |  | 
29 | CN(C)c1ccc(/C=C/c2ccc3ccccc3c2)cc1 | 3.66 µM | 3.66 µM | 3.66 µM | 3.66 µM | 3.66 µM |  | 
30 | COc1ccc(/C=C\c2ccc3ccccc3c2)cc1[N+](=O)[O-] | 3.28 µM | > 20 µM | > 20 µM | > 20 µM | > 20 µM |  | 
31 | COc1ccc(/C=C/c2ccc3ccccc3c2)cc1F | > 5 µM | > 5 µM | > 5 µM | 4.49 µM | > 5 µM |  | 
32 | C(=C/c1ccc2[nH]ccc2c1)/c1ccc2ccccc2c1 | > 5 µM | > 5 µM | > 5 µM | > 5 µM | > 5 µM |  | 
33 | FC(F)(F)Oc1ccc(/C=C/c2ccc3ccccc3c2)cc1 | > 5 µM | > 5 µM | > 5 µM | > 5 µM | > 5 µM |  | 
34 | COc1ccc(/C=C/c2ccc3ccccc3c2)cc1C(=O)CN | > 5 µM | > 5 µM | > 5 µM | > 5 µM | > 5 µM |  | 
35 | O=S(=O)(c1ccccc1)n1ccc2cc(/C=C\c3ccc4ccccc4c3)ccc21 | > 5 µM | > 5 µM | > 5 µM | > 5 µM | > 5 µM |  | 
36 | COc1ccc(/C=C/c2ccc3ccccc3c2)cc1 | > 5 µM | > 5 µM | > 5 µM | > 5 µM | > 5 µM |  | 
37 | COc1ccc(/C=C/c2ccc3ccccc3c2)cc1[N+](=O)[O-] | > 5 µM | > 5 µM | > 5 µM | > 5 µM | > 5 µM |  | 
38 | Cc1ccc(/C=C/c2ccc3ccccc3c2)cc1 | > 5 µM | > 5 µM | > 5 µM | > 5 µM | > 5 µM |  | 
39 | C(=C\c1ccc2ccccc2c1)/c1ccc2c(c1)-c1ccccc1C2 | > 5 µM | > 5 µM | > 5 µM | > 5 µM | > 5 µM |  | 
40 | Oc1ccc(/C=C/c2ccc3ccccc3c2)cc1 | 4.06 µM | 4.06 µM | 4.06 µM | 4.06 µM | 4.06 µM |  | 
41 | COCCOc1cc(/C=C\c2ccc3ccccc3c2)ccc1OC | 2.99 µM | 2.99 µM | 2.99 µM | 2.99 µM | 2.99 µM |  | 
